Data published in patent publication US20120129870A1, “PIPERAZINYL DERIVATIVES USEFUL AS MODULATORS OF THE NEUROPEPTIDE Y2 RECEPTOR” (priority 2007, published 2012).
pIC50, pKi: −log10 of the molar value.

Target: T1, NPY Y2 receptor (Homo sapiens, UniProt P49146)
T1 sequence (P49146 1-381): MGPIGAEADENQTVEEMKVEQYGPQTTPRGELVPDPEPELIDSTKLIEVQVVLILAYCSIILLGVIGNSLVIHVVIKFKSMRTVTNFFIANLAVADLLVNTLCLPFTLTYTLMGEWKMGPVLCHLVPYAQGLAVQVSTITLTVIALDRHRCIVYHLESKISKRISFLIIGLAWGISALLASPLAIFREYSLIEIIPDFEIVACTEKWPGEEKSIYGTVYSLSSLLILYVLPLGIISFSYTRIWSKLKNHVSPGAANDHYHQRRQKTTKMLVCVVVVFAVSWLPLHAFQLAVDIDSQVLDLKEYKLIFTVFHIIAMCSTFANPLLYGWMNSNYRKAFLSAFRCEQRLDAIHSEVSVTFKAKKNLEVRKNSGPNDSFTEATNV
Test: Neuropeptide Y2 radioligand binding assay ([125I]PYY, KAN-Ts membranes)
Set-up: endogenous in cells; host or cells: KAN-Ts cells (membrane preparation)
Conditions: for pIC50: KAN-Ts membranes endogenously expressing Y2, [125I]PYY (80 pM), 1 h at rt; for pKi: apparent Ki=IC50/(1+C/KD)
Procedure: KAN-Ts endogenously expressing Y2 receptors were used for the radioligand binding assay. Cells were grown to confluence on 150 cm^2 tissue culture plates, washed with phosphate-buffered saline (PBS), and scraped into 50 mL tubes. After centrifugation, the supernatant was aspirated, and the pellets frozen and stored at −80° C. Thawed pellets were homogenized with a polytron tissue grinder for 15 sec in 20 mM Tris-HCl, 5 mM EDTA. The homogenate was centrifuged at 800×g for 5 min and the collected supernatant was recentrifuged at 25000×g for 25 min. The resulting pellet was resuspended in binding buffer (20 mM HEPES, 120 mM NaCl, 0.22 mM KH2PO4, 1.3 mM CaCl2, 0.8 mM MgSO4). Membranes were incubated with [^125I]PYY (80 pM) in the presence or absence of test compound for 1 h at rt. The reaction was stopped by filtration through GF/C filter plates pre-soaked in 0.3% polyethylenimine and subsequently washed with Tris 50 mM, 5 mM EDTA buffer. Plates were dried for 1 h in a 55° C. oven, scintillation fluid was added and the radioactivity was counted in a Packard TopCount. Specific binding to the NPY receptor subtypes was determined by radioactivity that was bound in the presence of […]. Each binding experiment was repeated three to eight times, each in duplicate. IC50 values (i.e. concentration of unlabelled peptide or antagonist required to compete for 50% of specific binding to the radioligand) were calculated using the GraphPad Prism software (GraphPad Software Inc., San Diego Calif.) with a fit to a sigmoidal dose response curve. Apparent K, values were calculated as Ki=IC50/(1+C/KD), where C is concentration of the radioligand.

Row | SMILES | pIC50 | pKi
1 | CCC(CC)C(=O)Nc1ccc(N2CCN(C(c3ccccc3)c3ccc(Cl)cc3)CC2)c(F)c1 (stereo not shown) [Compound 13, N-(4-{4-[(4-Chloro-phenyl)-phenyl-methyl]-piperazin-1-yl}-3-fluoro-phenyl)-2-ethyl-butyramide] | 6.35 | –
2 | Cc1ccccc1C(c1ccccc1)N1CCN(c2ccc(NC(=O)c3c(C)noc3C)cc2C#N)CC1 (stereo not shown) [Compound 301, N-(3-Cyano-4-{4-[(2-methylphenyl)(phenyl)methyl]piperazin-1-yl}phenyl)-3,5-dimethylisoxazole-4-carboxamide] | – | 6.85
3 | CC(=O)Nc1ccc(N2CCN(C(c3ccccc3)c3ncco3)CC2)c(F)c1 (stereo not shown) [Compound 104, N-{3-Fluoro-4-[4-(oxazol-2-yl-phenyl-methyl)-piperazin-1-yl]-phenyl}-acetamide] | < 5.00 | –
4 | CCC(CC)C(=O)Nc1ccc(N2CCN(C(C#N)c3ccccc3OC)CC2)c(F)c1 (stereo not shown) [Compound 137, N-(4-{4-[Cyano-(2-methoxy-phenyl)-methyl]-piperazin-1-yl}-3-fluoro-phenyl)-2-ethyl-butyramide] | 5.92 | –
5 | N#Cc1cc(NC(=O)C2CCC(F)(F)CC2)ccc1N1CCN(C(c2ccccc2)c2ncco2)CC1 (stereo not shown) [Compound 109, 4,4-Difluoro-cyclohexanecarboxylic acid {3-cyano-4-[4-(oxazol-2-yl-phenyl-methyl)-piperazin-1-yl]-phenyl}-amide] | 5.44 | –
6 | CCC(CC)C(=O)Nc1ccc(N2CCN(C(c3ccc(C#N)cc3)c3ncco3)CC2)c(F)c1 (stereo not shown) [Compound 146, N-(4-{4-[(4-Cyano-phenyl)-oxazol-2-yl-methyl]-piperazin-1-yl}-3-fluoro-phenyl)-2-ethyl-butyramide] | 6.59 | –
7 | O=C(NC1CCCC1)c1ccc(N2CCN(C(c3ccccc3)c3ncco3)CC2)c(F)c1 (stereo not shown) [Compound 49, N-Cyclopentyl-3-fluoro-4-[4-(oxazol-2-yl-phenyl-methyl)-piperazin-1-yl]-benzamide] | < 5.00 | –
8 | O=C(Nc1ccc(N2CCN(C(c3ccccc3)c3ncco3)CC2)c(F)c1)C1CCCC1 (single isomer, unassigned) [Compound 126, Cyclopentanecarboxylic acid {3-fluoro-4-[4-(oxazol-2-yl-phenyl-methyl)-piperazin-1-yl]-phenyl}-amide] | 6.47 | –
9 | Cc1noc(C)c1C(=O)Nc1ccc(N2CCN(C(c3ccccc3)c3ccc(Cl)cc3)CC2)c(C#N)c1 (stereo not shown) [Compound 312, 3,5-Dimethyl-isoxazole-4-carboxylic acid (4-{4-[(4-chloro-phenyl)-phenyl-methyl]-piperazin-1-yl}-3-cyano-phenyl)-amide] | – | 7.08
10 | Cc1cccc(Nc2ccc(N3CCN(C(c4ccccc4)c4ncco4)CC3)c(F)c2)n1 (stereo not shown) [Compound 62, {3-Fluoro-4-[4-(oxazol-2-yl-phenyl-methyl)-piperazin-1-yl]-phenyl}-(6-methyl-pyridin-2-yl)-amine] | 5.33 | –
11 | CCC(CC)C(=O)Nc1ccc(N2CCN(C(c3ccccc3)c3nccn3C)CC2)c(F)c1 (stereo not shown) [Compound 64, 2-Ethyl-N-(3-fluoro-4-{4-[(1-methyl-1H-imidazol-2-yl)-phenyl-methyl]-piperazin-1-yl}-phenyl)-butyramide] | 6.77 | –
12 | CCC(CC)C(=O)Nc1ccc(N2CCN(C(c3ccccc3)c3ncno3)CC2)c(F)c1 (stereo not shown) [Compound 231, 2-Ethyl-N-{3-fluoro-4-[4-([1,2,4]-oxadiazol-5-yl-phenyl-methyl)-piperazin-1-yl]-phenyl}-butyramide] | 6.66 | –
13 | CCC(CC)C(=O)Nc1ccc(N2CCN(C(c3ccc(Cl)cc3)c3ncco3)CC2)c(F)c1 (stereo not shown) [Compound 157] | 6.80 | –
14 | CN(C)CC(=O)Nc1ccc(N2CCN(C(c3ccccc3)c3ccccc3)CC2)c(C#N)c1 [Compound 300, N-[4-(4-Benzhydryl-piperazin-1-yl)-3-cyano-phenyl]-2-dimethylamino-acetamide] | – | 6.60
15 | Cc1cccnc1Nc1ccc(N2CCN(C(c3ccccc3)c3ncco3)CC2)c(F)c1 (stereo not shown) [Compound 57, {3-Fluoro-4-[4-(oxazol-2-yl-phenyl-methyl)-piperazin-1-yl]-phenyl}-(3-methyl-pyridin-2-yl)-amine] | < 5.00 | –
16 | CCC(CC)C(=O)Nc1ccc(N2CCN(C(c3ccccc3)c3ncco3)CC2)c(C#N)c1 (stereo not shown) [Compound 86, N-{3-Cyano-4-[4-(oxazol-2-yl-phenyl-methyl)-piperazin-1-yl]-phenyl}-2-ethyl-butyramide] | 8.30 | –

Row | SMILES | pIC50 | pKi
17 | CC(C)C(=O)Nc1ccc(N2CCN(C(c3ccccc3)c3ncco3)CC2)c(C#N)c1 (stereo not shown) [Compound 87, N-{3-Cyano-4-[4-(oxazol-2-yl-phenyl-methyl)-piperazin-1-yl]-phenyl}-isobutyramide] | 7.27 | –
18 | CCC(CC)C(=O)Nc1ccc(N2CCN(C(c3ccccn3)c3ncco3)CC2)c(F)c1 (stereo not shown) [Compound 156, 2-Ethyl-N-{3-fluoro-4-[4-(oxazol-2-yl-pyridin-2-yl-methyl)-piperazin-1-yl]-phenyl}-butyramide] | 6.10 | –
19 | CCN(CC)C(=O)Cc1ccc(N2CCN(C(c3ccccc3)c3ccccc3)CC2)c(F)c1 [Compound 51, 2-[4-(4-Benzhydryl-piperazin-1-yl)-3-fluoro-phenyl]-N,N-diethyl-acetamide] | 5.81 | –
20 | Cc1cc(NC(=O)C2CC2)ccc1N1CCN(C(c2ccccc2)c2ncco2)CC1 (stereo not shown) [Compound 81, Cyclopropanecarboxylic acid {3-methyl-4-[4-(oxazol-2-yl-phenyl-methyl)-piperazin-1-yl]-phenyl}amide] | 5.77 | –
21 | Cn1ccnc1Nc1ccc(N2CCN(C(c3ccccc3)c3ncco3)CC2)c(F)c1 (stereo not shown) [Compound 58, {3-Fluoro-4-[4-(oxazol-2-yl-phenyl-methyl)-piperazin-1-yl]-phenyl}-(1-methyl-1H-imidazol-2-yl)-amine] | < 5.00 | –
22 | CCC(CC)C(=O)Nc1ccc(N2CCN(C(c3ccc(OC)cc3)c3ncco3)CC2)c(F)c1 (stereo not shown) [Compound 140, 2-Ethyl-N-(3-fluoro-4-{4-[(4-methoxy-phenyl)-oxazol-2-yl-methyl]-piperazin-1-yl}-phenyl)-butyramide] | 6.49 | –
23 | CC(CC(F)(F)F)C(=O)Nc1ccc(N2CCN(C(c3ccccc3)c3ncco3)CC2)c(F)c1 (stereo not shown) [Compound 111, 4,4,4-Trifluoro-N-{3-fluoro-4-[4-(oxazol-2-yl-phenyl-methyl)-piperazin-1-yl]-phenyl}-2-methyl-butyramide] | 6.44 | –
24 | CCCC(=O)Nc1ccc(N2CCN(C(c3ccccc3)c3ncco3)CC2)c(F)c1 (stereo not shown) [Compound 100, N-{3-Fluoro-4-[4-(oxazol-2-yl-phenyl-methyl)-piperazin-1-yl]-phenyl}-butyramide] | 5.89 | –
25 | Cc1cc(NC(=O)C(C)C)ccc1N1CCN(C(c2ccccc2)c2ncco2)CC1 (stereo not shown) [Compound 74, N-{3-Methyl-4-[4-(oxazol-2-yl-phenyl-methyl)-piperazin-1-yl]-phenyl}-isobutyramide] | 5.59 | –
26 | CC[C@@H](C)C(=O)Nc1ccc(N2CCN(C(c3ccccc3)c3ncco3)CC2)c(C#N)c1 (stereo in doubt) [Compound 93, N-{3-Cyano-4-[4-(oxazol-2-yl-phenyl-methyl)-piperazin-1-yl]-phenyl}-2-methyl-butyramide] | 7.49 | –
27 | O=C(Nc1ccc(N2CCN(C(c3ccccc3)c3ncco3)CC2)c(F)c1)C1CCCCC1 (stereo not shown) [Compound 107, Cyclohexanecarboxylic acid {3-fluoro-4-[4-(oxazol-2-yl-phenyl-methyl)-piperazin-1-yl]-phenyl}-amide] | 5.92 | –
28 | CCC(CC)C(=O)Nc1ccc(N2CCN(C(c3ccc(F)cc3)c3ncco3)CC2)c(F)c1 (stereo not shown) [Compound 120, 2-Ethyl-N-(3-fluoro-4-{4-[(4-fluoro-phenyl)-oxazol-2-yl-methyl]-piperazin-1-yl}-phenyl)-butyramide] | 6.11 | –
29 | CCC(CC)C(=O)Nc1ccc(N2CCN(C(c3ccccc3)C3CCOC3)CC2)c(F)c1 (stereo not shown) [Compound 114, 2-Ethyl-N-(3-fluoro-4-{4-[phenyl-(tetrahydro-furan-3-yl)-methyl]-piperazin-1-yl}-phenyl)-butyramide] | 6.34 | –
30 | CCC(CC)C(=O)Nc1ccc(N2CCN(C(c3ncco3)C3CCCCC3)CC2)c(F)c1 (stereo not shown) [Compound 122, N-{4-[4-(Cyclohexyl-oxazol-2-yl-methyl)-piperazin-1-yl]-3-fluoro-phenyl}-2-ethyl-butyramide] | 6.37 | –
31 | CC(=O)Nc1ccc(N2CCN(C(c3ccccc3)c3ncco3)CC2)c(C#N)c1 (stereo not shown) [Compound 103, N-{3-Cyano-4-[4-(oxazol-2-yl-phenyl-methyl)-piperazin-1-yl]-phenyl}-acetamide] | < 5.00 | –
